In this experiment the test system is MMP-1 expression in primary human dermal fibroblasts. In words: Inhibition of UV-A induced expression of matrix metalloproteinase-1 (MMP-1 RNA, real time PCR) in skin fibroblasts. It is filed as cell-based. As to conditions: 30 J/cm^2 UVA1; for MMP-1 expression relative to UV-A only treated cells / reduction of UV-A induced MMP-1 expression: primary human dermal fibroblasts; for MMP-1 expression relative to UV-A only treated cells: 48 h preincubation, 24 hrs after irradiation; for reduction of UV-A induced MMP-1 expression: concentrations as in Table 1. The protocol:
Primary human dermal fibroblasts were cultured in EMEM without glutamine (Earle's Minimum Essential Medium), supplemented with antibiotics/antimycotics, 2 mM L-glutamine and 7.5% fetal calf serum at 37° C./5% CO2 and grown to 100% confluency. Forty-eight hours prior to irradiation the cells were preincubated with the desired substances in EMEM (with AB/AM, L-Glutamine and 2% FCS. After 24 hours the medium was replaced by fresh medium with substances (freshly prepared). For irradiation, the medium was removed and after 6 wash steps with phosphate-buffered saline (PBS) replaced by phosphate-buffered saline (PBS). The plate was then exposed to 30 J/cm^2 UVA1. The UVA1 output was approximately 150 mW/cm^2. After irradiation the phosphate-buffered saline in the cell microplate was exchanged against culture medium (+7.5% FCS) with the substances (fresh prepared) and the cells were incubated in a CO2-incubator for further 24 hrs (MMP-1 determination). The culture medium was removed, the cells were rinsed with phosphate-buffered saline and the whole plate was frozen in liquid nitrogen. Total RNA was isolated using RNeasy Total RNA Kits (Qiagen, Hilden; Germany). The RNA concentration was determined via photometric measurement at 260/280. Aliquots of total RNA (75 ng) were applied for cDNA-Synthesis using Superscript™III First-Strand synthesis system for RT-PCR. Two samples for each compound were analyzed. The PCR reactions were carried out on an Opticon 1 (MJ Research, Waltham, Mass., USA) using SYBR Green® PCR Master Mix (Applied Biosystems, Darmstadt, Germany). For comparison of relative expression in real time PCR control cells and treated cells the 2 ^(-delta delta C(T)) method was used.

Setting [1] is: EGCG 9 μmol/L, Biotin 0.03 μmol/L.

These results are taken from patent US20100087498A1, “USE OF BIOTIN TO PREVENT PHOTOAGING” (priority 2007, published 2010).

As to `O=C(O)CCCC[C@@H]1SC[C@@H]2NC(=O)N[C@@H]21` [Biotin], the “reduction of UV-A induced MMP-1 expression” value is reported as 66%. This compound also displayed an inhibition at 0.03 µM (Homo sapiens, Fibroblast, light or radiation study, inhibition of UV-A induced MMP-1 expression, EGCG 9 μmol/L, Biotin 0.03 μmol/L) of 66%. For the same compound, under setting [1], the “MMP-1 expression relative to UV-A only treated cells” value was 35%.
For the compound (-)-epigallocatechin gallate [EGCG], the “reduction of UV-A induced MMP-1 expression” value amounted to 13%. Also, the “% inhibition” value (inhibition of UV-A induced MMP-1 expression, EGCG 9 μmol/L, Biotin 0.03 μmol/L) was determined as 13%. In addition, under setting [1], the “MMP-1 expression relative to UV-A only treated cells” value worked out at 87%.

Broadly, the inhibition is how much of the control response was suppressed. A low value points to a weak effect. For orientation: % inhibition means the drop in the measured response relative to a control, in per cent.
